Molecular target: T1, HilD^Q290A (Salmonella typhimurium, UniProt P0CL08, Q290A)
T1 construct: made in house; host or cells: E. coli BL21 (DE3)
T1 sequence (P0CL08 1-309 Q290A): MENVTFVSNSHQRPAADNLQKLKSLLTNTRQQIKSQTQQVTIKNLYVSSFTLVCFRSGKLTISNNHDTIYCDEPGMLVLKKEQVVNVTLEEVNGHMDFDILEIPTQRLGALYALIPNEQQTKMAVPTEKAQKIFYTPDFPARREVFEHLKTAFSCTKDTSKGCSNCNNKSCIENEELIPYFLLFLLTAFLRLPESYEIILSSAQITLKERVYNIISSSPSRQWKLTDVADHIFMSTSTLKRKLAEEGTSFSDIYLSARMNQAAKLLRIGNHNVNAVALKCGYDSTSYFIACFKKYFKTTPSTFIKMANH
Experiment: EMSA of hilA promoter DNA with HilD Q290A
Assay type: biochemical
Conditions: 10 nM hilA promoter DNA, 30 μM fatty acid
Protocol: These were performed as previously described. Briefly, 10 nM hilA promoter DNA (-286 to +31) was mixed with 150 nM HilD in a binding buffer (100 mM Tris pH 7.5, 10 mM EDTA, 1M KCl, 1 mM DTT, 50% v/v glycerol). Fatty acids or control solvents were added at various concentrations. Binding reaction was performed at room temperature for 1 hour. Dye solution was added to final concentration of 1X and samples were separated on 10% acrylamide gels. DNA was stained using SYBR Safe and visualized in BioRad GelDoc imaging system.

For CCCCCCCCCCCCC/C=C/C(=O)O [t2-HDA, trans-2-hexadecenoic acid], the “effect on HilD binding to hilA promoter DNA” value was “did not disrupt DNA binding”.

Reference: article PMC7932555, “A diffusible signal factor of the intestine dictates Salmonella invasion through its direct control of the virulence activator HilD” (PLoS Pathogens, 2021)
